Experimental data taken from patent publication US20030004207A1, “USE OF COMPOUNDS WHICH ACTIVATE A 5-HT RECEPTOR TO TREAT URINARY INCONTINENCE” (priority 1999, published 2003).
Where two headings read alike, the source gives them in different places.

Assays:
human 5-HT1A receptor = biological target: T1, human 5-HT1A receptor (Homo sapiens, UniProt P08908); experiment: Radioligand competition binding, human 5-HT1A receptor (3H-8-OH-DPAT); settings: read-out: Affinity at 5-HT1A (Ki ± SEM)
T1 construct: expressed in transfected cells; host or cells: COS-7 (transient, pCEXV-3 vector)
T1 sequence (P08908 1-422): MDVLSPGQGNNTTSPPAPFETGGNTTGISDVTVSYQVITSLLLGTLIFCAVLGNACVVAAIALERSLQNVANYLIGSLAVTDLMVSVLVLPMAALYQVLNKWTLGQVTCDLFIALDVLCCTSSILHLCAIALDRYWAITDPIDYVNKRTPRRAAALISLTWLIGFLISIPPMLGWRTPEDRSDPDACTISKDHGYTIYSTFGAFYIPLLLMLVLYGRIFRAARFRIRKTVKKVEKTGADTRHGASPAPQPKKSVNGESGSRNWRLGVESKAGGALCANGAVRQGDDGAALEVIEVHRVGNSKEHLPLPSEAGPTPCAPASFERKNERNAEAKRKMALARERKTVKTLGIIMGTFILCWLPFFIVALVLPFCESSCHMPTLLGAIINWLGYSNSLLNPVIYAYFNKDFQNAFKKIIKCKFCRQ
Experimental: (§1) The binding of a test compound to a receptor of interest was generally evaluated by competitive binding assays using membrane preparations derived from cells which expressed the receptor. First, conditions were determined which allowed measurement of the specific binding of a compound known to bind to the receptor. Then, the binding of the known compound to the receptor in membrane preparations was evaluated in the presence of several different concentrations of the test compound.
The binding properties of compounds at different human receptors were determined in vitro using cultured cell lines that selectively express the receptor of interest. […]
(§2) Human 5HT2A Receptor: The coding sequence of the human 5HT2A receptor was obtained from a human brain cortex cDNA library, and cloned into the cloning site of pCEXV-3 eukaryotic expression vector. […] The affinity of compounds at 5-HT2A receptors were determined in equilibrium competition binding assays using [^3H] ketanserin (1 nM). […]
5-HT1A Receptor: The cDNA corresponding to the 5-HT1A receptor open reading frames and variable non-coding 5′- and 3′-regions, was cloned into the eukaryotic expression vector pCEXV-3. […] Radioligand binding assays were performed as described above for the 5-HT2A receptor, except that ^3H-8-OH-DPAT was used as the radioligand and nonspecific binding was determined by the addition of 10 μM mianserin.

human 5-HT7 receptor = biological target: T2, human 5-HT7 receptor (Homo sapiens, UniProt P34969); experiment: Radioligand competition binding, human 5-HT7 receptor ([3H]-serotonin); settings: read-out: Affinity at 5-HT7 (Ki ± SEM)
T2 construct: expressed in transfected cells
T2 sequence (P34969 whole entry): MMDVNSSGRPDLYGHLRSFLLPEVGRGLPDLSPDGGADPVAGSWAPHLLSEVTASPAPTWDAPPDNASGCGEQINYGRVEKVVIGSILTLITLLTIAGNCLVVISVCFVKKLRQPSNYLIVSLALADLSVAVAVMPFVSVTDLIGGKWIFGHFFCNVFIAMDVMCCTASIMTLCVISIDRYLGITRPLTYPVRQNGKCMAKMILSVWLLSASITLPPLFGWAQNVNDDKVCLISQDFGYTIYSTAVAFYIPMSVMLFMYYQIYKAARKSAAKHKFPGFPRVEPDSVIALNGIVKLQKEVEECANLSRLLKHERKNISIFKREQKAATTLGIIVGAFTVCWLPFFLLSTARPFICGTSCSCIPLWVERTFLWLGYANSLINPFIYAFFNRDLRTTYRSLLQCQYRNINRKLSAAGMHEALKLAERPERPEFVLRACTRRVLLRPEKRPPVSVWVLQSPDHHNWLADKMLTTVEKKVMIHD
Experimental: as §1
(§3) The binding properties of compounds at different human receptors were determined in vitro using cultured cell lines that selectively express the receptor of interest. These cell lines were prepared by transfecting the cloned cDNA or cloned genomic DNA or constructs containing both genomic DNA and cDNA encoding the human receptors as follows:
(§4) Human 5HT1B, 5HT1D, 5HT1E, 5HT1F, and 5HT7 Receptors:
(§5) The cell lysates of LM(tk-) clonal cell line stably transfected with the genes encoding each of these 5-HT receptor-subtypes were prepared as described above. Cell membranes were suspended in 50 mM Tris-HCl buffer (pH 7.4 at 37° C.) containing 10 mM MgCl2, 0.2 mM EDTA, 10 μM pargyline, and 0.1% ascorbate. […] Nonspecific binding was determined in the presence of 10 μM serotonin. […]

[1] = system: distension-induced rhythmic contractions of the rat bladder; experiment: Distension-induced rhythmic contraction (DIRC) model of the micturition reflex; assay type: in vivo; settings: for Effect on distension-induced rhythmic contractions of the rat bladder: urethane-anesthetized female rat, 0.1 mg/kg
Experimental: The effects of compounds on the micturition reflex were assessed in the “distension-induced rhythmic contraction” (DIRC) model in rats, as described in previous publications (e.g. Maggi et al., 1987; Morikawa et al., 1992).
Female Sprague Dawley rats weighing approximately 300 g were anesthetized with subcutaneous urethane (1.2 g/kg). The trachea was cannulated with PE240 tubing to provide a clear airway throughout the experiment. A midline abdominal incision was made and the left and right ureters were isolated. The ureters were ligated distally (to prevent escape of fluids from the bladder) and cannulated proximally with PE10 tubing. The incision was closed using 4-0 silk sutures, leaving the PE10 lines routed to the exterior for the elimination of urine. The bladder was cannulated via the transurethral route using PE50 tubing inserted 2.5 cm beyond the urethral opening. This cannula was secured to the tail using tape and connected to a pressure transducer. To prevent leakage from the bladder, the cannula was tied tightly to the exterior urethral opening using 4-0 silk.
To initiate the micturition reflex, the bladder was first emptied by applying pressure to the lower abdomen, and then filled with normal saline in 100 μl increments (maximum=2 ml) until spontaneous bladder contractions occurred (typically 20-40 mmHg at a rate of one contraction every 1 to 2 minutes. Once a regular rhythm was established, vehicle (saline) or 5-HT1F-selective compounds were administered i.p. to explore their effects on bladder activity. In some instances, a compound known to affect the micturition reflex (e.g. the GABAB receptor agonist APMPA [3-aminopropyl-2-methyl-phosphinic acid]) was given as a “positive control”.

human 5-HT1F receptor = biological target: T3, human 5-HT1F receptor (Homo sapiens, UniProt P30939); experiment: Radioligand competition binding, human 5-HT1F receptor ([3H]-serotonin); settings: read-out: Affinity at 5-HT1F (Ki ± SEM)
T3 construct: expressed in transfected cells
T3 sequence (P30939 1-366): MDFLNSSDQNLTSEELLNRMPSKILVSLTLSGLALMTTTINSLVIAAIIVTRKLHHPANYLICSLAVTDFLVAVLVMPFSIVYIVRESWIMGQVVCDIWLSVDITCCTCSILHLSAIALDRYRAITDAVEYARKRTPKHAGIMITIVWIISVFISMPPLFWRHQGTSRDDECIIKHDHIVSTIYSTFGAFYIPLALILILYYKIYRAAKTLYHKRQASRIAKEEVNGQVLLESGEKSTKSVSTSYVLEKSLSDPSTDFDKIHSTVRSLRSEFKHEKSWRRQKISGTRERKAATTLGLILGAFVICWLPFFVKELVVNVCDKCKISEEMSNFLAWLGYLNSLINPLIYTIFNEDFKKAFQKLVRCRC
Experimental: as §1, §3, §4
(§6) The cell lysates of LM(tk-) clonal cell line stably transfected with the genes encoding each of these 5-HT receptor-subtypes were prepared as described above. Cell membranes were suspended in 50 mM Tris-HCl buffer (pH 7.4 at 37° C.) containing 10 mM MgCl2, 0.2 mM EDTA, 10 μM pargyline, and 0.1% ascorbate. The affinities of compounds were determined in equilibrium competition binding assays by incubation for 30 minutes at 37° C. in the presence of 5 nM [^3H]-serotonin. Nonspecific binding was determined in the presence of 10 μM serotonin. The bound radioligand was separated by filtration through GF/B filters using a cell harvester.

human 5-HT4 receptor = biological target: T4, human 5-HT4 receptor (Homo sapiens, UniProt Q13639); experiment: Radioligand binding, human 5-HT4 receptor; settings: read-out: Affinity at 5-HT4 (Ki ± SEM)
T4 construct: expressed in transfected cells
T4 sequence (Q13639 whole entry): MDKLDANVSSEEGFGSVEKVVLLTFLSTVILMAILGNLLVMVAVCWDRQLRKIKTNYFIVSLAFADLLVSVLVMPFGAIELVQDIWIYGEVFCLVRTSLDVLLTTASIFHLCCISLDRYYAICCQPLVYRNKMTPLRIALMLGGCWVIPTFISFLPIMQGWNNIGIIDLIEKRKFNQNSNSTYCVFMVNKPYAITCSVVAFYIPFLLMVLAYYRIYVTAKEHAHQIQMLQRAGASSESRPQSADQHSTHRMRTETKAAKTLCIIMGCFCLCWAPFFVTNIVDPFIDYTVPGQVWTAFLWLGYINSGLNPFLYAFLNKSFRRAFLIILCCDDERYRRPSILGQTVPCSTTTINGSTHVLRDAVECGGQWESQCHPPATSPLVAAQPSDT
Experimental: as §1
(§7) Other 5-HT Receptors: The binding assays using 5-HT4 were preformed according to the procedures described in U.S. Pat. No. 5,766,879, the disclosure of which is hereby incorporated by reference in its entirety into this application. Other serotonin receptor binding assays were preformed according to published methods: 5-HT2B: Kursar et al., 1992; 5-HT2C: Saltzman et al., 1991; 5-HT3: Hoyer and Neijt, 1987; 5-HT5A: Plassat et al., 1992; 5-HT5B: Matthes et al., 1993; 5-HT6: Kohen et al., 1996.

human 5-HT1E receptor = biological target: T5, human 5-HT1E receptor (Homo sapiens, UniProt P28566); experiment: Radioligand competition binding, human 5-HT1E receptor ([3H]-serotonin); settings: read-out: Affinity at 5-HT1E (Ki ± SEM)
T5 construct: expressed in transfected cells
T5 sequence (P28566 whole entry): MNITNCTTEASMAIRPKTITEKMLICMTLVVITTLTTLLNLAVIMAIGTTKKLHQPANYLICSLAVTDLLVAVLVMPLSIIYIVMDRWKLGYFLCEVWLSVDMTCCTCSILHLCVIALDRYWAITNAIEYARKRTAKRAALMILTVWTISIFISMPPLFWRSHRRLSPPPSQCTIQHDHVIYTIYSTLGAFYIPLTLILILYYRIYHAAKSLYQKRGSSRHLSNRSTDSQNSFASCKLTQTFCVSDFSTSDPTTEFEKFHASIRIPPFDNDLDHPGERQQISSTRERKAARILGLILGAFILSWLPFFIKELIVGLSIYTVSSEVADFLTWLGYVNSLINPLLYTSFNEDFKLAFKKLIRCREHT
Experimental: as §1, §3, §4, §6

human 5-HT2B receptor = biological target: T6, human 5-HT2B receptor (Homo sapiens, UniProt P41595); experiment: Radioligand binding, human 5-HT2B receptor
T6 construct: expressed in transfected cells
T6 sequence (P41595 whole entry): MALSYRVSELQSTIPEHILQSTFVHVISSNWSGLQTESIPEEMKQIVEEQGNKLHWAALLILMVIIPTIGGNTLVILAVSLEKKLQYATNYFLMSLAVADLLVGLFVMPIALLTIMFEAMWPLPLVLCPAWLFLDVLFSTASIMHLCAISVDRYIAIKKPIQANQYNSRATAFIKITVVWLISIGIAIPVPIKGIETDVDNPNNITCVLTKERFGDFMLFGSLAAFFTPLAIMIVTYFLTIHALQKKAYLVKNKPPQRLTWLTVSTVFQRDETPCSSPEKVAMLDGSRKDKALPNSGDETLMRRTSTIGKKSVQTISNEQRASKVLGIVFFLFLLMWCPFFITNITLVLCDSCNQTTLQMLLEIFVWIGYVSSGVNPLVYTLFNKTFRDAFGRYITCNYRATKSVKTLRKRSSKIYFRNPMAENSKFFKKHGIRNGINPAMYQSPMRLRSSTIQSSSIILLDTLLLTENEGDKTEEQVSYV
Experimental: as §1, §7

human 5-HT2C receptor = biological target: T7, human 5-HT2C receptor (Homo sapiens, UniProt P28335); experiment: Radioligand binding, human 5-HT2C receptor
T7 construct: expressed in transfected cells
T7 sequence (P28335 33-458): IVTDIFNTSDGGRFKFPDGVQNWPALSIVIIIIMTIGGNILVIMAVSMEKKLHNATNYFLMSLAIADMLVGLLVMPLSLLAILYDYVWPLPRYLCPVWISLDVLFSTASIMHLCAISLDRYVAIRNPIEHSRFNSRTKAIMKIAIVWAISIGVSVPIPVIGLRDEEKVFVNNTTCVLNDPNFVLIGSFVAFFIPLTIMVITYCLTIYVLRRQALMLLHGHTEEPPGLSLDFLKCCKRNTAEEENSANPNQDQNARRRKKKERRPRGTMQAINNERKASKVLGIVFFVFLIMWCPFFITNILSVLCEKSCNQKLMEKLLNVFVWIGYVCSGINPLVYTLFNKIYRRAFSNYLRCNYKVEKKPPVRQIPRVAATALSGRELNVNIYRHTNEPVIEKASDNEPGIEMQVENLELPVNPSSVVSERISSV
Experimental: as §1, §7

human 5-HT1B receptor = biological target: T8, human 5-HT1B receptor (Homo sapiens, UniProt P28222); experiment: Radioligand competition binding, human 5-HT1B receptor ([3H]-serotonin); settings: read-out: Affinity at 5-HT1B (Ki ± SEM)
T8 construct: expressed in transfected cells
T8 sequence (P28222 whole entry): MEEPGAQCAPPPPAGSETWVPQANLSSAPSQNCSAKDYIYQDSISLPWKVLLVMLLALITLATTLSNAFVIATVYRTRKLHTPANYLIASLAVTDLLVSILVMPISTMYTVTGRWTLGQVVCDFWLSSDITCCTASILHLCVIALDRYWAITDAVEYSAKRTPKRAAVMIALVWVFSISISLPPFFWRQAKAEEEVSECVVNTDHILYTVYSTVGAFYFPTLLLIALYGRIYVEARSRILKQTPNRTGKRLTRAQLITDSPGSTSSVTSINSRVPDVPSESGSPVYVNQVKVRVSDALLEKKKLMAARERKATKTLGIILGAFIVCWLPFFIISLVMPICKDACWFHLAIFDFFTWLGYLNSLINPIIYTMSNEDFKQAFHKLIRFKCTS
Experimental: as §1, §3, §4, §5

human 5-HT6 receptor = biological target: T9, human 5-HT6 receptor (Homo sapiens, UniProt P50406); experiment: Radioligand binding, human 5-HT6 receptor; settings: read-out: Affinity at 5-HT6 (Ki ± SEM)
T9 construct: expressed in transfected cells
T9 sequence (P50406 whole entry): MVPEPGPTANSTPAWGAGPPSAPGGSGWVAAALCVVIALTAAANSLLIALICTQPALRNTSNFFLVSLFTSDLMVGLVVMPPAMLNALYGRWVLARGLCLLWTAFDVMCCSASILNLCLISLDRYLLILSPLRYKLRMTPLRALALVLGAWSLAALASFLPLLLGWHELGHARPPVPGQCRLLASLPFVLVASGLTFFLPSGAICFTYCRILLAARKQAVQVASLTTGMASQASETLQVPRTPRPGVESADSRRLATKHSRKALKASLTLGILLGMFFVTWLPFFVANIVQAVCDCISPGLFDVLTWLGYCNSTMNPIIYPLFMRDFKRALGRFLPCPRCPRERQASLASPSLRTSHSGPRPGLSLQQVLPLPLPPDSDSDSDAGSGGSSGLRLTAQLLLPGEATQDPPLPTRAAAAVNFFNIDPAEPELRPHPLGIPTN
Experimental: as §1, §7

human 5-HT2A receptor = biological target: T10, human 5-HT2A receptor (Homo sapiens, UniProt P28223); experiment: Radioligand competition binding, human 5-HT2A receptor ([3H] ketanserin)
T10 construct: expressed in transfected cells; host or cells: COS-7 (transient, pCEXV-3 vector)
T10 sequence (P28223 whole entry): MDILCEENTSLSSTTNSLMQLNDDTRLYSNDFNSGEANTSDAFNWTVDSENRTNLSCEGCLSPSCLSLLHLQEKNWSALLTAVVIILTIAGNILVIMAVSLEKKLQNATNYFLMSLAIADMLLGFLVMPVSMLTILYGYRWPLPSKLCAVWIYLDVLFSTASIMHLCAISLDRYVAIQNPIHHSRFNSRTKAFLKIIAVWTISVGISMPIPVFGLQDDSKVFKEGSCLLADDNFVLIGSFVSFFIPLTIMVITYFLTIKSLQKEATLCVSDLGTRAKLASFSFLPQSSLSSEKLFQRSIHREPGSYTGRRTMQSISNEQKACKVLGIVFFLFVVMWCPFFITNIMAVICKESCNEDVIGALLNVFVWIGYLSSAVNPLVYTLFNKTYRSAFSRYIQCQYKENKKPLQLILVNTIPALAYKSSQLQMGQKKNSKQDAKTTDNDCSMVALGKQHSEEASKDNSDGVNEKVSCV
Experimental: as §1, §3
as §2, with “vector. This construct was transfected into COS-7 cells by the DEAE-dextran method. Cells were harvested after 72 hours and lysed by sonication in 5 mM Tris-HCl, 5 mM EDTA, pH 7.5.” for “vector.”

human 5-HT1D receptor = biological target: T11, human 5-HT1D receptor (Homo sapiens, UniProt P28221); experiment: Radioligand competition binding, human 5-HT1D receptor ([3H]-serotonin); settings: read-out: Affinity at 5-HT1D (Ki ± SEM)
T11 construct: expressed in transfected cells
T11 sequence (P28221 whole entry): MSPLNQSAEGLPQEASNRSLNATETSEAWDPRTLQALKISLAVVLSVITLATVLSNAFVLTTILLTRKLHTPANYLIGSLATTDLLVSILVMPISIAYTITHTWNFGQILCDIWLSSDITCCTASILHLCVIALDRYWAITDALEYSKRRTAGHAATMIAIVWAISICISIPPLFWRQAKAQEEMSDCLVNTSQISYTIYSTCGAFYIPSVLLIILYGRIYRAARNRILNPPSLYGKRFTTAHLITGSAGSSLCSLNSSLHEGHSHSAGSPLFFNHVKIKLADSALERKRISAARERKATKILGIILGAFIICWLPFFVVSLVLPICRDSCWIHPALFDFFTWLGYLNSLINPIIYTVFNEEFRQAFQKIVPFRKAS
Experimental: as §1, §3, §4, §5

[2] = rat, prior administration of antagonist 1.0 mg/kg, i.p.

Row | Compound | Ki (human 5-HT1A receptor) [nM] | Ki (human 5-HT7 receptor) [nM] | Effect on distension-induced rhythmic contractions of the rat bladder ([1]; i.p.) | Ki (human 5-HT1F receptor) [nM] | Ki (human 5-HT4 receptor) [nM] | Ki (human 5-HT1E receptor) [nM] | Ki (human 5-HT2B receptor; human 5-HT2B, read-out: Affinity at 5-HT2B (Ki ± SEM)) [nM] | Ki (human 5-HT2C receptor; human 5-HT2C, read-out: Affinity at 5-HT2C (Ki ± SEM)) [nM] | Ki (human 5-HT1B receptor) [nM] | Ki (human 5-HT6 receptor) [nM] | Ki (human 5-HT2A receptor; human 5-HT2A, read-out: Affinity at 5-HT2A (Ki ± SEM)) [nM] | Ki (human 5-HT1D receptor) [nM] | Blockade of the inhibitory effect of Compound 2 on bladder contractions [1, 2] | Blockade of the inhibitory effect of the GABAB agonist 3-APMPA on bladder contractions [1, 2] | Ki (human 5-HT2B receptor) [nM] | Ki (human 5-HT2C receptor) [nM] | Ki (human 5-HT2A receptor) [nM] | Effect on bladder contractions (positive control) ([1]; rat, after Compound 3, dose not given)
1 | CN(C)C1CCc2oc3ccc(NC(=O)c4ccncc4)cc3c2C1 (centres unmarked) [Compound 1, N-(N,N-Dimethyl-1,2,3,4-tetrahydro-2-aminodibenzofur-8-yl)-pyridine-4-carboxamide] | 367 ± 42 | > 5000 | inhibited | 7.11 ± 0.76 | 1870 ± 57 | 2900 ± 288 | 4200 ± 219 | 4760 ± 169 | 751 ± 68 | > 5000 | > 5000 | 1780 ± 87 | – | – | – | – | – | –
2 | O[C@H](COc1ccc2ccccc2c1)CN1CCC(O)(c2cnc3ccccc3c2)CC1 [Compound 3, 1-((2S)-hydroxy-3-(naphth-2-yloxy)prop-1-yl)-4-hydroxy-4-(quinolin-3-yl)piperidine] | 591 ± 143 | 4410 ± 514 | – | 4.31 ± 0.53 | 405 ± 122 | 3670 ± 505 | – | – | 1280 ± 144 | 4220 ± 399 | – | 1530 ± 400 | complete blockade | failed to block | 496 ± 36 | 1370 ± 341 | 377 ± 94 | –
3 | CP(=O)(O)CCCN [Compound 3-APMPA, 3-aminopropyl-methyl-phosphinic acid, reference compound] | – | – | – | – | – | – | – | – | – | – | – | – | – | – | – | – | – | inhibitory effect
4 | CN(C)[C@@H]1CCc2c([nH]c3ccc(NC(=O)c4ccc(F)cc4)cc23)C1 [Compound 2, (R)-(+)-6-(4-fluorobenzoyl)amino-2-(dimethyl)amino-1,2,3,4-tetrahydro-9H-carbazole] | – | – | inhibited | 3.47 ± 0.08 | – | 461 ± 102 | – | – | – | – | – | – | – | – | – | – | – | –
